Test results taken from patent publication US20170252446A1, “USE OF MESO- AND NANOPOROUS MATERIAL FOR SURFACTANT TRAPPING IN NANOPARTICLE SUSPENSIONS” (Therakine BioDelivery GmbH, priority 2014, published 2017).

Experiment: Surface tension of SDS solution after repeated additions of mesoporous MCM particles (surfactant trapping)
Format: physicochemical
Details: pure SDS solution (8.2 mM), before addition of MCM particles
Description: Anionic mesoporous nanoparticles (MCM) were suspended into water, wetted, and separated from free water by centrifugation. Pure sodium dodecyl sulphate (SDS) solution (8.2 mM) provides a starting surface tension of about 36.5 mN/m. Per 1 g of MCM particles, 15 mL of SDS is added, resulting in an increase of the surface tension to 45 mN/m. Second, third, and fourth additions result in 57.5 mN/m, 66.8 mN/m, and 70.5 mN/m, respectively. After four mesoporous particle additions, the pure water value is already approached. This is illustrated in FIG. 1. Such non-limiting methods have been unexpectedly discovered to be useful for reliably and predictably preparing a stable nanoparticle suspension of a poorly soluble active ingredient. Cationic mesoporous nanoparticles (MCM) are suspended in water, wetted, and separated from free water by centrifugation. Pure sodium dodecyl sulphate (SDS) solution (8.2 mM) provides a starting surface tension of about 36.5 mN/m. Per 1 g of MCM particles, 15 mL of SDS is added, resulting in an increase of the surface tension to 40 mN/m. Second and third additions result in 54.0 mN/m and 70.0 mN/m, respectively. After three mesoporous particle additions, the pure water value is already approached. This is illustrated in FIG. 2. […]

CCCCCCCCCCCCOS(=O)(=O)[O-].[Na+] [sodium dodecyl sulphate (SDS), sodium dodecyl sulphate]
starting surface tension: about 36.5 mN/m
